The text below walks through data of patent US20220079194A1, “EXTRUDATE FOOD COMPOSITIONS COMPRISING CULTIVATED ANIMAL CELLS AND METHODS OF PRODUCTION THEREOF” (GOOD Meat, Inc., priority 2020, published 2022).

Series [1] concerns C1F chicken cells. Description: Alternative sugars as carbon source for C1F suspension cultures. The note with it: for viable cell density at peak: 3 g/L sugar from day 0, batch, day 3, 1.25% FBS. The class given is cell-based. As to the method:
We evaluated the impact of alternative sugars (mannose, fructose and galactose) on the growth and metabolism of an in-house C1F chicken cells grown in suspension cultures containing 1.25% FBS. Specific net growth rate (uN) and Specific glucose consumption rate (qGluc) or specific lactate production rate (qLac) were calculated according to equation 1 or 2 as disclosed in Example 12.
Suspension cultures as described herein were cultivated using 3 g/L of the respective sugars were added from day 0 and cultured in a batch mode up to day 3. On day 3 after sampling, an additional 3 g/L of each sugar was added to the respective flasks. By day 3, at the peak cell density, flasks that used glucose as carbon source had the highest viable cell density (˜2.805×10^6 cells/mL), followed by flasks with mannose (˜2.40×10^6 cells/mL), then fructose (1.935×10^6 cells/mL) and lastly galactose (0.915×10^6 cells/mL).
Since we observed that the C1F cells could utilize fructose as a carbon source, we evaluated the effect of different starting concentration of fructose. In one experiment, 6 g/L of fructose was added to one set of duplicate flasks from day 0, and 3 g/L of fructose added each to another set of duplicate flasks from day 0. In the flasks starting with 3 g/L of fructose, an additional 3 g/L of fructose was added on day 1 of one of the duplicates and day 2 of the other duplicate.
We next evaluated the effect of combining glucose, mannose and fructose on growth and lactate production. Using a design-of-experiment (DOE) approach, 17 batch shake flask runs were carried out evaluating varying combinations of concentrations of glucose, mannose and fructose as energy sources for suspension chicken C1F cells. The experimental design used included 3 factors (glucose, mannose and fructose) and 4 levels (0, 0.5, 1.5 and 3.0 g/L). By day 3, cells with the base carbon sources 3.0 glucose/0.5 fructose/0.5 mannose had the highest viable cell density (VCD) of 3.8×10^6 cell/mL, followed by 3.0 glucose/0.0 fructose/3.0 mannose and 3.0 glucose/3.0 fructose/3.0 mannose. […]

Series [2] relates to C1F cells. Description: Sodium oxamate treatment of C1F suspension culture (lactate, glucose, growth). The class given is cell-based, chicken. As to the method:
[…] cells were cultivated in suspension culture supplemented with 1.25% bovine serum. Different concentrations of sodium oxamate were tested: 1, 3, 5, 10, 30, 60, 100, and 200 mM, and production of lactate, glucose consumption, cell growth rates and cell density were measured. The specific rates were calculated using daily viable cell concentration and metabolite concentrations for the duration of the cell culture. Specific net growth rates (UN) were calculated as a change in VCD over a time interval t1 to t2 using equation (1): Specific glucose consumption rate (qGluc) or specific lactate production rate (qLac) were determined using equation (2), where P is glucose or lactate concentration: Viable cell density (VCD) and viability were determined by the trypan blue exclusion method using the Vi-cellTM (Beckman Coulter) from 1 mL daily samples taken from shake flask cell culture. Gas and pH values including metabolite (glucose, lactate glutamine, glutamate, ammonium) concentrations were measured using the Bioprofile Flex analyzer (Nova Biomedical). Osmolality was measured using the OsmoPro Multi-Sample Micro-Osmometer (Advanced Instruments) which employs the freezing point technology. To further examine if the effects of oxamate remained similar in cell culture with metabolic by-products already present, we passaged cells treated with 30 mM oxamate using a 1:3 (v/v) split with fresh media (1⁄3 of the volume of spent media and 2⁄3 of fresh media). Having been used in culture for several days, carried over media invariably contains residual amounts (carryover) of metabolites resultant from cell consumption.

The test system of series [3] is C1F cells. Described as above. It counts as cell-based, chicken. The note with it: 10, 15, 20 and 30 mM, 3-day batch cell culture.

As for `O=C(CO)[C@@H](O)[C@H](O)[C@H](O)CO` [fructose], the “viable cell density at peak” value in series [1] is on record as 1.935×10^6 cells/mL. For the same compound, the “lactate accumulation, higher by day 3” value in series [1] (6 g/L from day 0 vs 3 g/L from day 0 plus 3 g/L later) is 36%.

In the case of `O=C[C@H](O)[C@@H](O)[C@@H](O)[C@H](O)CO` [galactose], the “viable cell density at peak” value in series [1] is reported as 0.915×10^6 cells/mL.

`NC(=O)C(=O)[O-].[Na+]` [oxamate, sodium oxamate]: the “reduction in lactate production” value in series [2] (10 mM, day 2, C1F-SCM batch shake flasks, vs control, p<0.05) worked out at 28%. In series [2] (30 mM), the “cell viability and osmolality of the media” value was “not compromised”; the “specific glucose consumption (qGluc)” value is “decreased”. In addition, the “increase in maximum viable cell density” value in series [2] (30 mM vs control) was roughly 44%. Besides, in series [2] (30 mM, between days 3 and 5, relative to non-treated control), the ammonium accumulation entry is “spiked out”. For the same compound, in series [2] (30 mM, by day 5, vs control group), the “reduction in cumulative lactate production” value was roughly 23%. Moreover, the “peak viable cell density” value in series [2] (30 mM, day 5, passaged 1:3 with spent media carryover) is 2.79×10^6 cells/mL. Besides, in series [2] (30, 60, 100 and 200 mM, 3-day batch culture), the lactate production entry is reported as “concentration-dependent decrease”. Moreover, the “lactate production vs control” value in series [2] (other concentrations tested (1, 3, 5 mM), day 2, C1F-SCM batch) is given as “appreciable decrease in lactate production”. The “decrease in lactate production” value in series [3] is on record as “about 52%”.
